Results taken from US11840686B2, “Modulation of prekallikrein (PKK) expression” (Ionis Pharmaceuticals, Inc., priority 2013, dated 2023).

What was measured:
[1] = cynomolgus monkey, in vivo, sc, 40 mg/kg
Protocol: (§1) Prior to the study, the monkeys were kept in quarantine for a 30-day period, during which the animals were observed daily for general health. The monkeys were 2-4 years old and weighed between 2 and 4 kg. Ten groups of four randomly assigned male cynomolgus monkeys each were injected subcutaneously with ISIS oligonucleotide or PBS. PBS solution or ISIS oligonucleotides at a dose of 40 mg/kg were administered initially with a loading regimen consisting of four doses on the first week of the study (days 1, 3, 5, and 7), followed by a maintenance regimen consisting of once weekly administration starting on Day 14 (weeks 2 to 13). Subcutaneous injections were performed in clock-wise rotations at 4 sites on the back; one site per dose. The injection sites were delineated by tattoo, while sedated using ketamine, and were separated by a minimum of 3 cm.
To evaluate the effect of ISIS oligonucleotides on hepatic function, the monkeys were fasted overnight. Approximately, 1.5 mL of blood samples were collected from all the study groups. Blood was collected in tubes without anticoagulant for serum separation. The tubes were kept at room temperature for a minimum of 90 min and then centrifuged at 3,000 rpm for 10 min. Levels of various liver function markers were measured using a Toshiba 120FR NEO chemistry analyzer (Toshiba Co., Japan).

[2] = cynomolgus monkey, in vivo, sc, 40 mg/kg; remark: listed apart in the source
Protocol: as §1
To evaluate the effect of ISIS oligonucleotides on kidney function, the monkeys were fasted overnight. Approximately, 1.5 mL of blood samples were collected from all the study groups. Blood was collected in tubes without anticoagulant for serum separation. The tubes were kept at room temperature for a minimum of 90 min and then centrifuged at 3,000 rpm for 10 min. Levels of BUN and creatinine were measured using a Toshiba 120FR NEO chemistry analyzer (Toshiba Co., Japan).

[3] = cynomolgus monkey, in vivo, sc, 40 mg/kg; remark: listed apart in the source
Protocol: as §1
Kidney function was also assessed by urinalysis. Fresh urine from all animals was collected using a clean cage pan on wet ice. Food was removed overnight the day before fresh urine collection was done but water was supplied. The total protein and creatinine levels were measured using a Toshiba 120FR NEO automated chemistry analyzer (Toshiba Co., Japan) and the protein to creatinine ratio was calculated.

[4] = test system: PKK protein; test: PKK protein in cynomolgus monkey plasma by ELISA (Example 8); assay type: in vivo; conditions: 40 mg/kg sc
Protocol: Approximately 0.9 mL of blood was collected each time from all available animals at pre-dose, day 17, day 31, day 45, day 59, and day 73, and placed in tubes containing 3.2% sodium citrate. The tubes were centrifuged (3000 rpm for 10 min at room temperature) to obtain plasma. PKK protein levels were measured in the plasma by ELISA. The results are presented in Table 52, expressed as percentage inhibition compared to the PBS control levels.

[5] = cynomolgus monkey, in vivo, sc, 40 mg/kg; remark: listed apart in the source
Protocol: as §1
To evaluate any effect of ISIS oligonucleotides in cynomolgus monkeys on hematologic parameters, blood samples of approximately 1.2 mL of blood was collected pre-dose and on day 87 or day 88 from each of the available study animals in tubes containing K2-EDTA. Samples were analyzed for red blood cell (RBC) count, white blood cells (WBC) count, platelet count, hemoglobin content and hematocrit, using an ADVIA2120i hematology analyzer (SIEMENS, USA).

[6] = cynomolgus monkey, in vivo, sc, 40 mg/kg; remark: listed apart in the source
Protocol: as §1
To evaluate any inflammatory effect of ISIS oligonucleotides in cynomolgus monkeys, the monkeys were fasted overnight. Approximately, 1.5 mL of blood samples were collected from all the study groups. Blood was collected in tubes without anticoagulant for serum separation. The tubes were kept at room temperature for a minimum of 90 min and then centrifuged at 3,000 rpm for 10 min. C-reactive protein (CRP), which is synthesized in the liver and which serves as a marker of inflammation, was measured using a Toshiba 120FR NEO chemistry analyzer (Toshiba Co., Japan). Complement C3 was also measured similarly, and the data is presented as a percentage of baseline values.

[7] = Tolerability / clinical observation of cynomolgus monkeys (Example 8); assay type: in vivo, cynomolgus monkey; conditions: cynomolgus monkeys, 40 mg/kg s.c.
Protocol: Cynomolgus monkeys were treated with ISIS antisense oligonucleotides selected from studies described above. Antisense oligonucleotide efficacy and tolerability were evaluated. The human antisense oligonucleotides tested are cross-reactive with the rhesus genomic sequence (GENBANK Accession No. NW_001118167.1 truncated from nucleotides 2358000 to 2391000 and designated herein as SEQ ID NO: 18).
During the study period, the monkeys were observed a minimum of once daily for signs of illness or distress. Any animal experiencing more than momentary or slight pain or distress due to the treatment, injury or illness was promptly reported to the responsible veterinarian and the Study Director. Any animal in poor health or in a possible moribund condition was identified for further monitoring and possible euthanasia. […] The protocols described in the Example were approved by the Institutional Animal Care and Use Committee (IACUC).

Substance: ISIS 546232: antisense oligonucleotide targeting human PKK; sequence in a table not shown (antisense AGGAACTTGGTGTGCCACTT; 5-10-5 MOE gapmer, further chemistry not given here)
- ALT [1]: 140 IU/L
- AST [1]: 63 IU/L
- Albumin [1]: 4.1 g/dL
- Plasma BUN [2]: 22.7 mg/dL
- Plasma Creatinine [2]: 1.0 mg/dL
- Urine protein/creatinine ratio [3]: 0.03
- PKK protein level reduction (%) in plasma relative to control levels ([4]; Day 17): 53%
- PKK protein level reduction (%) in plasma relative to control levels ([4]; Day 31): 58%
- PKK protein level reduction (%) in plasma relative to control levels ([4]; Day 45): 72%
- PKK protein level reduction (%) in plasma relative to control levels ([4]; Day 59): 75%
- PKK protein level reduction (%) in plasma relative to control levels ([4]; Day 73): 70%
- HCT [5]: 42%
- Hemoglobin [5]: 12.9 g/dL
- Platelets [5]: 391000 µL⁻¹
- RBC [5]: 5.4e+06 µL⁻¹
- WBC [5]: 11000 µL⁻¹
- C3 (% of baseline) [6]: 50 % of baseline
- CRP [6]: 0.5 mg/dL

Substance: ISIS 546251: antisense oligonucleotide targeting nucleobases 27427-27466 of SEQ ID NO: 10; sequence in a table not shown (antisense GGCAAACATTCACTCCTTTA; 5-10-5 MOE gapmer, further chemistry not given here)
- ALT [1]: 58 IU/L
- AST [1]: 51 IU/L
- Albumin [1]: 3.7 g/dL
- Plasma BUN [2]: 25.4 mg/dL
- Plasma Creatinine [2]: 1.1 mg/dL
- Urine protein/creatinine ratio [3]: 0.12
- PKK protein level reduction (%) in plasma relative to control levels ([4]; Day 17): 71%
- PKK protein level reduction (%) in plasma relative to control levels ([4]; Day 31): 75%
- PKK protein level reduction (%) in plasma relative to control levels ([4]; Day 45): 75%
- PKK protein level reduction (%) in plasma relative to control levels ([4]; Day 59): 81%
- PKK protein level reduction (%) in plasma relative to control levels ([4]; Day 73): 77%
- HCT [5]: 43%
- Hemoglobin [5]: 12.9 g/dL
- Platelets [5]: 419000 µL⁻¹
- RBC [5]: 5.7e+06 µL⁻¹
- WBC [5]: 8000 µL⁻¹
- C3 (% of baseline) [6]: 62 % of baseline
- CRP [6]: 0.7 mg/dL

Substance: ISIS 546828: gapmer targeting human PKK, selected from earlier screens; sequence in a table not shown (ACAGTATCACTGTACTAGTT; gapmer, wing chemistry not given here)
- ALT [1]: 67 IU/L
- AST [1]: 75 IU/L
- Albumin [1]: 3.7 g/dL
- Plasma BUN [2]: 24.7 mg/dL
- Plasma Creatinine [2]: 0.9 mg/dL
- Urine protein/creatinine ratio [3]: 0.03
- PKK protein level reduction (%) in plasma relative to control levels ([4]; Day 17): 0%
- PKK protein level reduction (%) in plasma relative to control levels ([4]; Day 31): 8%
- PKK protein level reduction (%) in plasma relative to control levels ([4]; Day 45): 23%
- PKK protein level reduction (%) in plasma relative to control levels ([4]; Day 59): 39%
- PKK protein level reduction (%) in plasma relative to control levels ([4]; Day 73): 39%
- HCT [5]: 43%
- Hemoglobin [5]: 12.9 g/dL
- Platelets [5]: 408000 µL⁻¹
- RBC [5]: 6e+06 µL⁻¹
- WBC [5]: 11000 µL⁻¹
- C3 (% of baseline) [6]: 56 % of baseline
- CRP [6]: 0.6 mg/dL

Substance: ISIS 547445: gapmer targeting human PKK, selected from earlier screens; sequence in a table not shown (antisense GCCACTATAGATGCGCCAAA; gapmer, wing chemistry not given here)
- clinical observation, euthanasia [7]: two monkeys treated with ISIS 547445 were euthanized

Substance: ISIS 547455: antisense oligonucleotide targeting nucleobases 30570-30610 of SEQ ID NO: 10; sequence in a table not shown (ATATCATGATTCCCTTCTGA; 5-10-5 MOE gapmer, further chemistry not given here)
- ALT [1]: 61 IU/L
- AST [1]: 56 IU/L
- Albumin [1]: 3.8 g/dL
- Plasma BUN [2]: 29.4 mg/dL
- Plasma Creatinine [2]: 0.9 mg/dL
- Urine protein/creatinine ratio [3]: 0.70
- PKK protein level reduction (%) in plasma relative to control levels ([4]; Day 17): 26%
- PKK protein level reduction (%) in plasma relative to control levels ([4]; Day 31): 33%
- PKK protein level reduction (%) in plasma relative to control levels ([4]; Day 45): 43%
- PKK protein level reduction (%) in plasma relative to control levels ([4]; Day 59): 58%
- PKK protein level reduction (%) in plasma relative to control levels ([4]; Day 73): 58%
- HCT [5]: 34%
- Hemoglobin [5]: 10.2 g/dL
- Platelets [5]: 448000 µL⁻¹
- RBC [5]: 4.5e+06 µL⁻¹
- WBC [5]: 13000 µL⁻¹
- C3 (% of baseline) [6]: 64 % of baseline
- CRP [6]: 1.9 mg/dL

Substance: ISIS 547457: antisense oligonucleotide targeting nucleobases 30570-30610 of SEQ ID NO: 10; sequence in a table not shown (AAGGCGATATCATGATTCCC; 5-10-5 MOE gapmer, further chemistry not given here)
- ALT [1]: 52 IU/L
- AST [1]: 54 IU/L
- Albumin [1]: 4.0 g/dL
- Plasma BUN [2]: 24.3 mg/dL
- Plasma Creatinine [2]: 1.0 mg/dL
- Urine protein/creatinine ratio [3]: 0.03
- PKK protein level reduction (%) in plasma relative to control levels ([4]; Day 17): 68%
- PKK protein level reduction (%) in plasma relative to control levels ([4]; Day 31): 75%
- PKK protein level reduction (%) in plasma relative to control levels ([4]; Day 45): 79%
- PKK protein level reduction (%) in plasma relative to control levels ([4]; Day 59): 76%
- PKK protein level reduction (%) in plasma relative to control levels ([4]; Day 73): 80%
- HCT [5]: 45%
- Hemoglobin [5]: 13.8 g/dL
- Platelets [5]: 367000 µL⁻¹
- RBC [5]: 6.4e+06 µL⁻¹
- WBC [5]: 10000 µL⁻¹
- C3 (% of baseline) [6]: 53 % of baseline
- CRP [6]: 0.3 mg/dL

Substance: ISIS 547927: antisense oligonucleotide targeting human PKK; sequence in a table not shown (ATGGTCCGACACACAA; deoxy, MOE and cEt modifications, further chemistry not given here)
- ALT [1]: 61 IU/L
- AST [1]: 59 IU/L
- Albumin [1]: 4.2 g/dL
- Plasma BUN [2]: 22.3 mg/dL
- Plasma Creatinine [2]: 1.0 mg/dL
- Urine protein/creatinine ratio [3]: 0.04
- PKK protein level reduction (%) in plasma relative to control levels ([4]; Day 17): 8%
- PKK protein level reduction (%) in plasma relative to control levels ([4]; Day 31): 0%
- PKK protein level reduction (%) in plasma relative to control levels ([4]; Day 45): 15%
- PKK protein level reduction (%) in plasma relative to control levels ([4]; Day 59): 10%
- PKK protein level reduction (%) in plasma relative to control levels ([4]; Day 73): 18%
- HCT [5]: 41%
- Hemoglobin [5]: 12.5 g/dL
- Platelets [5]: 461000 µL⁻¹
- RBC [5]: 5.2e+06 µL⁻¹
- WBC [5]: 45000 µL⁻¹
- C3 (% of baseline) [6]: 73 % of baseline
- CRP [6]: 0.2 mg/dL
